Data reported in US11053250B2, “Pyrrolo[1,2-b]pyridazine derivatives” (Gilead Sciences, Inc., priority 2018, dated 2021).

How the values were obtained:
TNFα = experiment: IRAK4 Monocyte TNFα Cell Based Assay; conditions: cryopreserved human monocytes, LPS 50 pg/ml stimulation, TNFα by TR-FRET
Experimental: The cell suspension was then plated at a density of 5,000 cells/well onto black 384 well Greiner clear bottom plates. Plates were pre-spotted with test compounds and serially diluted in DMSO where 40 nL/well were delivered using the Echo 550 acoustic liquid dispenser (Labcyte®) for a final DMSO concentration of 0.1%. Plated cells were treated with compound for 1 hour at 37° C. Cells were then stimulated with 50 pg/ml of LPS (Sigma) excluding outside columns of plate used for unstimulated cell control wells. Cells were incubated for an additional 4 hours at 37° C. Cells were then spun out of the media and 5 μl of sample were taken and analyzed for total TNFα content using the TR-FRET Human TNFα detection system (CisBio). This system utilizes two labeled antibodies (cryptate and XL665) that bind to two different epitopes of the TNFα molecule and produce FRET signal proportional to the concentration of TNFα in the sample. Detection antibodies are mixed 50:50 and 5 μL were dispensed into each well. Plates were covered with clear seals and incubated at room temp overnight. The following morning plates were read using an Envision 2103 Multilabeled reader (PerkinElmer) with excitation/emission/FRET emission at 340 nm/615 nm/665 nm, respectively. Fluorescence intensities at 615 nm and 665 nm emission wavelengths were expressed as a ratio (665 nm/615 nm). Percent of control was calculated as follows: % Control=100×(RatioSample−Ratio0% stimulation)/(Ratio100% Stimulation−Ratio0% stimulation) where unstimulated cells (0% stimulation) were the negative control and stimulated cells (100% stimulation) were used as the positive control.

IRAK4 enzyme = IRAK4 enzyme (Homo sapiens (Human), UniProt Q9NWZ3); experiment: IRAK4 Biochemical Assay (TR-FRET/HTRF); conditions: 0.75 nM IRAK4, 500 μM ATP, STK1 peptide
Chain of IRAK4 enzyme (Q9NWZ3 whole entry): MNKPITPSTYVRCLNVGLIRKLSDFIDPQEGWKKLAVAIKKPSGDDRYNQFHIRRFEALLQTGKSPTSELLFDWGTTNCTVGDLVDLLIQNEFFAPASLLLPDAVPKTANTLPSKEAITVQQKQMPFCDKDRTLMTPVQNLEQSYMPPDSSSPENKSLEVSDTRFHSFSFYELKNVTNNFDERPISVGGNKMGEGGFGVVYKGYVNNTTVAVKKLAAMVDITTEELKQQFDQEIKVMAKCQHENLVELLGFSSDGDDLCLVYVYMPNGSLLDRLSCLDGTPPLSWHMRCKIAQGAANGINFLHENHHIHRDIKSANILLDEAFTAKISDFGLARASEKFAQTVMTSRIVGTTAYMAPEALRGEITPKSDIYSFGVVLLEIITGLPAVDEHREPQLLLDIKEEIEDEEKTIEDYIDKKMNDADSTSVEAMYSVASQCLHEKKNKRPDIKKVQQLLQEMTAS
Experimental: IRAK4 enzyme (Carna Biosciences, Chuo-ku, Kobe, Japan) activity was measured by detecting phosphorylated peptide substrate formation using an antibody against the phosphorylated peptide substrate. This is a time-resolved fluorescence resonance energy transfer (TR-FRET) immunoassay, based on the STK1 KinEASE Assay (Cisbio, Bedford, Mass.). The assay was designed as a simple two-step, endpoint assay (a 5 μl enzyme reaction followed by 5 μl stop and detect Solution) performed in ProxiPlate-384 Plus plates (Perkin Elmer, Waltham, Mass.). Staurosporine, a non-selective kinase inhibitor was used as a positive control. Compounds diluted in DMSO were spotted into 384 well plates using a Labcyte® Echo 550 Liquid Handling System prior to addition of IRAK4 enzyme and peptide substrate. Reaction solutions were delivered using a Multi-Flo (Bio-Tek Instruments). The enzyme and peptide solution was incubated with compound for 15 minutes at room temp before the reaction was initiated by the addition of ATP. The standard 5 μl reaction mixture contained 500 μM ATP, 2 μM peptide (STK1 Peptide), 0.75 nM of IRAK4 in reaction buffer (50 mM HEPES, pH 7.0, 0.02% NaN3, 0.01% BSA, 0.1 mM Orthovanadate, 5 mM MgCl2, 0.025% NP-40, 1 mM DTT). After 120 min of incubation at room temperature, 5 μl of Stop and Detect Solution (1:100 Cryptate labeled anti-phosphorylated peptide antibody solution and 125 nM Tracer in a 50 mM HEPES pH 7.0 detection buffer containing sufficient EDTA) was added. The plate was then further incubated for 60 minutes at room temperature and read on Envision 2103 Multilabeled reader (PerkinElmer) with excitation/emission/FRET emission at 340 nm/615 nm/665 nm, respectively. Fluorescence intensities at 615 nm and 665 nm emission wavelengths were expressed as a ratio (665 nm/615 nm). Percentage of inhibition was calculated as below: % Inhibition=100×(RatioSample−Ratio0% Inhibition)/(Ratio100% Inhibition−Ratio0% Inhibition)
The 0% inhibition value comes from control wells lacking inhibitor. The 100% inhibition value comes from control wells containing a saturating amount of known inhibitor staurosporine.

SMILES | EC50 (TNFα; Monocyte) [nM] | IC50 (IRAK4 enzyme) [nM] | EC50 (TNFα) [nM]
COC(=O)NCC1CC(Nc2cc(-c3ccc4cc(C#N)cnn34)ncc2-c2cn(C3CCC(NC(=O)OC(C)(C)C)CC3)nn2)C1 [Compound 22, methyl (((1R,3r)-3-((5-(1-((1r,4R)-4-((tert-butoxycarbonyl)amino)cyclohexyl)-1H-1,2,3-triazol-4-yl)-2-(3-cyanopyrrolo[1,2-b]pyridazin-7-yl)pyridin-4-yl)amino)cyclobutyl)methyl)carbamate] | – | 1 | 187
CC(C)(O)[C@H](F)Cn1cc(-c2cnc(-c3ccc4cc(C#N)cnn34)cc2NC2COC2)nn1 [Compound 31, (R)-7-(5-(1-(2-fluoro-3-hydroxy-3-methylbutyl)-1H-1,2,3-triazol-4-yl)-4-(oxetan-3-ylamino)pyridin-2-yl)pyrrolo[1,2-b]pyridazine-3-carbonitrile] | 23 | < 1 | –
COC(=O)NC[C@H]1C[C@H](Nc2cc(-c3ccc4cc(C#N)cnn34)ncc2-c2cn(CC(F)(F)F)nn2)C1 [Compound 29, methyl (((1r,3r)-3-((2-(3-cyanopyrrolo[1,2-b]pyridazin-7-yl)-5-(1-(2,2,2-trifluoroethyl)-1H-1,2,3-triazol-4-yl)pyridin-4-yl)amino)cyclobutyl)methyl)carbamate] | – | < 1 | 77
Cn1cc(-c2cnc(-c3ccc4cc(C#N)cnn34)cc2N[C@H]2CCC[C@@H](O)C2)nn1 [Compound 12, 7-(4-(((1S,3R)-3-hydroxycyclohexyl)amino)-5-(1-methyl-1H-1,2,3-triazol-4-yl)pyridin-2-yl)pyrrolo[1,2-b]pyridazine-3-carbonitrile] | 30 | 1 | –
COC(=O)NC[C@H]1C[C@H](Nc2cc(-c3ccc4cc(C#N)cnn34)ncc2-c2cn([C@H]3CC[C@H](NC(=O)C4CC4)CC3)nn2)C1 [Compound 19, methyl (((1R,3r)-3-((2-(3-cyanopyrrolo[1,2-b]pyridazin-7-yl)-5-(1-((1r,4R)-4-(cyclopropanecarboxamido)cyclohexyl)-1H-1,2,3-triazol-4-yl)pyridin-4-yl)amino)cyclobutyl)methyl)carbamate] | – | < 1 | 9
CC(C)(O)[C@H](F)Cn1cc(-c2cnc(-c3ccc4cc(C#N)cnn34)cc2N[C@H]2CCC[C@@H](O)C2)nn1 [Compound 13, 7-(5-(1-((R)-2-fluoro-3-hydroxy-3-methylbutyl)-1H-1,2,3-triazol-4-yl)-4-(((1S,3R)-3-hydroxycyclohexyl)amino)pyridin-2-yl)pyrrolo[1,2-b]pyridazine-3-carbonitrile] | 5 | < 1 | –
COC(=O)NC[C@H]1C[C@H](Nc2cc(-c3ccc4cc(C#N)cnn34)ncc2-c2cn(C(F)F)nn2)C1 [Compound 4, methyl (((1r,3r)-3-((2-(3-cyanopyrrolo[1,2-b]pyridazin-7-yl)-5-(1-(difluoromethyl)-1H-1,2,3-triazol-4-yl)pyridin-4-yl)amino)cyclobutyl)methyl)carbamate] | – | 2 | 130
C[C@H](C#N)Nc1cc(-c2ccc3cc(C#N)cnn23)ncc1-c1cn(C[C@@H](F)C(C)(C)O)nn1 [Compound 1, 7-(4-(((R)-1-cyanoethyl)amino)-5-(1-((R)-2-fluoro-3-hydroxy-3-methylbutyl)-1H-1,2,3-triazol-4-yl)pyridin-2-yl)pyrrolo[1,2-b]pyridazine-3-carbonitrile] | 12 | < 1 | –

Next, values leading:

EC50 (TNFα; Monocyte) [nM] | IC50 (IRAK4 enzyme) [nM] | EC50 (TNFα) [nM] | SMILES
534 | 7 | – | CC(C)Nc1cc(-c2ccc3cc(C#N)cnn23)ncc1-c1cn(C2CCN(C(=O)OC(C)(C)C)CC2)nn1 [Compound 46, tert-butyl 4-(4-(6-(3-cyanopyrrolo[1,2-b]pyridazin-7-yl)-4-(isopropylamino)pyridin-3-yl)-1H-1,2,3-triazol-1-yl)piperidine-1-carboxylate]
238 | 4 | – | CC(C)Nc1cc(-c2ccc3cc(C#N)cnn23)ncc1-c1cn(CC(C)(C)O)nn1 [Compound 50, 7-(5-(1-(2-hydroxy-2-methylpropyl)-1H-1,2,3-triazol-4-yl)-4-(isopropylamino)pyridin-2-yl)pyrrolo[1,2-b]pyridazine-3-carbonitrile]
70 | 1 | – | CC(C)Nc1cc(-c2ccc3cc(C#N)cnn23)ncc1-c1cn(C2CCN(S(C)(=O)=O)CC2)nn1 [Compound 41, 7-(4-(isopropylamino)-5-(1-(1-(methylsulfonyl)piperidin-4-yl)-1H-1,2,3-triazol-4-yl)pyridin-2-yl)pyrrolo[1,2-b]pyridazine-3-carbonitrile]
– | < 1 | 6 | CC(C)(O)[C@H](F)Cn1cc(-c2cnc(-c3ccc4cc(C#N)cnn34)cc2N[C@H]2CC[C@H](c3nncs3)CC2)nn1 [Compound 38, 7-(4-(((1r,4R)-4-(1,3,4-thiadiazol-2-yl)cyclohexyl)amino)-5-(1-((R)-2-fluoro-3-hydroxy-3-methylbutyl)-1H-1,2,3-triazol-4-yl)pyridin-2-yl)pyrrolo[1,2-b]pyridazine-3-carbonitrile]
58 | < 1 | – | CC(C)Nc1cc(-c2ccc3cc(C#N)cnn23)ncc1-c1cn(C2CCOCC2)nn1 [Compound 59, 7-(4-(isopropylamino)-5-(1-(tetrahydro-2H-pyran-4-yl)-1H-1,2,3-triazol-4-yl)pyridin-2-yl)pyrrolo[1,2-b]pyridazine-3-carbonitrile]
85 | 1 | – | CNC(=O)Cn1cc(-c2cnc(-c3ccc4cc(C#N)cnn34)cc2NC(C)C)nn1 [Compound 45, 2-(4-(6-(3-cyanopyrrolo[1,2-b]pyridazin-7-yl)-4-(isopropylamino)pyridin-3-yl)-1H-1,2,3-triazol-1-yl)-N-methylacetamide]
30 | < 1 | – | CC(C)Nc1cc(-c2ccc3cc(C#N)cnn23)ncc1-c1cn(C[C@@H](F)C(C)(C)O)nn1 [Compound 49, (R)-7-(5-(1-(2-fluoro-3-hydroxy-3-methylbutyl)-1H-1,2,3-triazol-4-yl)-4-(isopropylamino)pyridin-2-yl)pyrrolo[1,2-b]pyridazine-3-carbonitrile]
6 | < 1 | – | CC(C)(O)[C@H](F)Cn1cc(-c2cnc(-c3ccc4cc(C#N)cnn34)cc2NC23CCC(N4CCOCC4)(CC2)CC3)nn1 [Compound 34, (R)-7-(5-(1-(2-fluoro-3-hydroxy-3-methylbutyl)-1H-1,2,3-triazol-4-yl)-4-((4-morpholinobicyclo[2.2.2]octan-1-yl)amino)pyridin-2-yl)pyrrolo[1,2-b]pyridazine-3-carbonitrile]
– | < 1 | 6 | COC(=O)NC[C@H]1C[C@H](Nc2cc(-c3ccc4cc(C#N)cnn34)ncc2-c2cn(C[C@@H](F)C(C)(C)O)nn2)C1 [Compound 39, methyl (((1R,3r)-3-((2-(3-cyanopyrrolo[1,2-b]pyridazin-7-yl)-5-(1-((R)-2-fluoro-3-hydroxy-3-methylbutyl)-1H-1,2,3-triazol-4-yl)pyridin-4-yl)amino)cyclobutyl)methyl)carbamate]
95 | 3 | – | CC(C)Nc1cc(-c2ccc3cc(C#N)cnn23)ncc1-c1cn(-c2cccnc2)nn1 [Compound 52, 7-(4-(isopropylamino)-5-(1-(pyridin-3-yl)-1H-1,2,3-triazol-4-yl)pyridin-2-yl)pyrrolo[1,2-b]pyridazine-3-carbonitrile]
1120 | 14 | – | CC(C)Nc1cc(-c2ccc3cc(C#N)cnn23)ncc1-c1cn(C23CC(C2)C3)nn1 [Compound 57, 7-(5-(1-(bicyclo[1.1.1]pentan-1-yl)-1H-1,2,3-triazol-4-yl)-4-(isopropylamino)pyridin-2-yl)pyrrolo[1,2-b]pyridazine-3-carbonitrile]
